Data set [1] has as its system MDA-MB-231 xenograft. The data set can be described thus: Drug biodistribution in MDA-MB-231 xenograft model. Format: in vivo, mice. Particulars: after 40scFv-ILs-DTXp3 50 mpk; tumor vs liver and spleen. From the text: Each group consists of 3 animals. “Mpk” stand for mg of the drug per kg animal body weight.
The animals received one tail vein injection of 40scFv-ILs-DTXp3 at 50 mpk or free docetaxel at 10 mpk. At each time point, animals were sacrificed and tumor, liver and spleen were collected and flash frozen.
All tissue samples were thawed, weighed, and then mechanically homogenized using a Bullet Blender (Next Advance, Inc., Averill Park, N.Y.) in a solution of 40% acetonitrile containing 0.25% trifluoroacetic acid. The acid was included in the solvent for pH stabilization of Compound 3. […]
The homogenized tissue samples were analyzed utilizing two bioanalytical assays to individually measure Compound 3 and DTX. […] The analytes, Compound 3 and DTX, were detected in both assays by multiple reaction monitoring (MRM) in positive ion mode using electrospray ionization. The homogenized tissue samples were quantitated for Compound 3 and DTX using extracted calibration standards and quality control (QC) samples prepared by spiking Compound 3 or DTX into an acidified plasma matrix, which is a 3:2 mixture of female CD-1 lithium heparinized mouse plasma (Bioreclamation, LLC, Westbury, N.Y.) and 200 mM sodium phosphate buffer (pH 2.5). […]

Data set [2] in a line: Hydrolysis in buffer at 37° C., % DTX formation by HPLC. It counts as physicochemical. The procedure: A volume of a 10 mg/mL solution of drug in DMSO as needed to provide the desired concentration (typically 16 p1 to yield a 80 μg/mL solution) is placed in a glass test tube or 4 mL vial. Additional DMSO may also be added (e.g. 64 μL when using 164 of drug solution) to yield a final total DMSO concentration of 4%. The DMSO solutions are mixed by brief vortexing, and then 2 mL (20 mM) HEPES buffer for pH 7.5 and 2 mL of (20 mM) phosphate buffer for pH 2.5 is added and the mixture is vortexed again. The initial pH may be adjusted by addition of HCl or NaOH.
Then 100 μLaliquots of the buffer solution of drug are transferred into HPLC vials and incubated in a 37° C. water bath. The remaining solution is also incubated at 37° C. in 4 mL vials for monitoring of pH.
At each time point 900 μL of 0.1% trifluoroacetic acid (TFA) in acetonitrile (ACN) is added to the HPLC vial and the contents are vortexed. The vials are then placed in an autosampler rack at 4° C. for HPLC analysis.
Time zero data points are typically obtained from a solution of 4 μL DMSO stock in 5 mL of 0.1% TFA/ACN (8 μg/mL).
HPLC analysis is performed on a SYNERGI 4 micron Polar RP-80A, 250×4.6 mm column, using a flow rate of 1 mL/min, a 50 μL injection volume, column temperature of 25° C. and with UV detection at 227 nm. Most compounds are analyzed using a 13 min gradient (Method A) from 30 to 66% acetonitrile in aqueous 0.1% TFA, followed by a 1 min gradient back to 30% and a hold at 30% for 6 minutes. If the retention time is too long for this method, a 20 min gradient (Method B) of 30 to 90% acetonitrile, followed by a 1 min return to 30% and held for 9 min at 30% is employed.
The extent of hydrolysis is reported in Table 7 below as the % DTX formation based on relative peak areas.

Data set [3] in a line: Chronic tolerability studies. Particulars: in vivo.
Description: Chronic tolerability studies were performed in rodent and non-rodent models with focus on overall animal health, as well as hematologic toxicities.
Data set [4] in a line: In vivo tolerability in Swiss Webster mice. The note with it: IV. An excerpt: Swiss Webster homozygous female mice (5-6 week old) were obtained from Charles River Laboratory. The animals received tail vein injections, at the intervals of 7 days of tested compound at tested dose (Table 5: Experimental design).
Animal weight and performance status score were monitored based on clinical observation of the mice three to four times a week (clinical observations table). Animals that experience severe toxicity are euthanized according to IACUC protocol. If more than 30% of the mice experience severe toxicity the tested dose is deemed not tolerated.

Data set [5] relates to SUM-159 xenograft. Particulars: mouse, in vivo. An excerpt:
The animals received four tail vein injections, at the intervals of 7 days.
The tumor progression was monitored by palpation and caliper measurements of the tumors along the largest (length) and smallest (width) axis twice a week.

Data set [6] in a line: Coagulation parameters (PT, APTT, fibrinogen) in rats. It counts as in vivo, Sprague Dawley rats. The note with it: 10 mg/kg, end of study (Day 30), vs vehicle control.
Description: Blood samples collected at end of study from all the tested groups were analyzed for coagulation-related parameters including: Prothrombin time (PT), activated partial thromboplastin time (APTT) and fibrinogen levels.

The values below come from patent US20180021294A1, “Ephrin Receptor A2 (EPHA2)-Targeted Docetaxel-Generating Nano-Liposome Compositions” (Merrimack Pharmaceuticals, Inc., priority 2016, published 2018).

In the case of `CCN(CC)CCCC(=O)O[C@@H](C(=O)O[C@H]1C[C@@]2(O)[C@@H](OC(=O)c3ccccc3)[C@@H]3[C@]4(OC(C)=O)CO[C@@H]4C[C@H](O)[C@@]3(C)C(=O)[C@H](O)C(=C1C)C2(C)C)[C@@H](NC(=O)OC(C)(C)C)c1ccccc1.Cl` [Compound 3, 2′-O-(4-Diethylaminobutanoyl) DTX Hydrochloride], the “conversion of prodrug to docetaxel in tissue (docetaxel/Compound 3 ratio)” value in data set [1] is on record as “sustained conversion of the Compound 3 to docetaxel at the tumor site”. For the same compound, the “Percentage of Hydrolysis (% DTX formation)” value in data set [2] (pH 2.5, 0 h) was 0.00%; in data set [2] (pH 2.5, 5 h), 0.00%; in data set [2] (pH 2.5, 24 h), 0.00%; in data set [2] (pH 2.5, 48 h) it was 0.00%; in data set [2] (pH 2.5, 96 h), 0%; in data set [2] (pH 7.5, 0 h) it was 0.00%. The “Percentage of Hydrolysis (% DTX formation)” value was 45.76% in data set [2] (pH 7.5, 5 h); 100.00% in data set [2] (pH 7.5, 24 h); 100.00% in data set [2] (pH 7.5, 48 h); 100% in data set [2] (pH 7.5, 96 h).

As to `CC(=O)O[C@@]12CO[C@@H]1C[C@H](O)[C@@]1(C)C(=O)[C@H](O)C3=C(C)[C@@H](OC(=O)[C@H](OC(=O)CCCN(C)C)[C@@H](NC(=O)OC(C)(C)C)c4ccccc4)C[C@@](O)([C@@H](OC(=O)c4ccccc4)[C@H]21)C3(C)C.Cl` [Compound 4, 2′-O-[4-(N,N-Dimethylamino)butanoyl] DTX Hydrochloride], the “Percentage of Hydrolysis (% DTX formation)” value in data set [2] (pH 2.5, 0 h) was found to be 0.00%; in data set [2] (pH 2.5, 5 h), 0.00%; in data set [2] (pH 2.5, 24 h), 0.00%; in data set [2] (pH 2.5, 48 h) it was 0.00%; in data set [2] (pH 2.5, 96 h) it was 0%; in data set [2] (pH 7.5, 0 h) it was 0.00%. The “Percentage of Hydrolysis (% DTX formation)” value was 76.07% in data set [2] (pH 7.5, 5 h); 100.00% in data set [2] (pH 7.5, 24 h); 100.00% in data set [2] (pH 7.5, 48 h); 100% in data set [2] (pH 7.5, 96 h).

What is called MTD is the highest dose tested that stayed within the study's limit of toxicity. For `CC(=O)O[C@@]12CO[C@@H]1C[C@H](O)[C@@]1(C)C(=O)[C@H](O)C3=C(C)[C@@H](OC(=O)[C@H](O)[C@@H](NC(=O)OC(C)(C)C)c4ccccc4)C[C@@](O)([C@@H](OC(=O)c4ccccc4)[C@H]21)C3(C)C` [docetaxel], in data set [3], the MTD was found to be 20 mg/kg. Besides, the “maximum tolerated dose for weekly treatment” value in data set [4] amounted to 20 mpk. The “treatment related toxicity (body weight)” value in data set [5] is given as “severe”. For the same compound, in data set [6], the “Activated partial thromboplastin time (APTT)” value is on record as “shortened”.
